Results from patent US11083735B2, “Methods for treating sleep disorders, sleep disturbances, and related symptoms using aminosterol compositions” (Enterin, Inc., priority 2017, dated 2021).

Experiments:
[1] = Duration of the aminosterol-induced response after a single oral dose; format: in vivo, human; conditions: single 200 mg oral dose
Excerpt: The invention is also based on the discovery of unexpected and unprecedented activity of orally or nasally administered squalamine and related aminosterols (e.g., aminosterol 1436). The activity relates to stimulating a sequence of events within the human GI tract with therapeutic value. With respect to this activity, the sequence of events stimulated by an aminosterol such as squalamine or aminosterol 1436 involves the induction of an intestinal secretory response followed by a period of “small intestinal quieting,” and the subsequent passage of a normally formed bowel movement. These events are best explained as a consequence of the stimulation of a heretofore unknown physiological gastrointestinal response, in this invention shown to be controlled or initiated by an effective oral dose of an aminosterol such as squalamine or the related aminosterol, 1436 (Aminosterol-Induced GI Response). The activity relates to stimulating the neural connections between the enteric nervous system and the brain with therapeutic value, which can thereby impact sleeping disorders, sleeping disturbances, or related symptoms, as described herein. With respect to this activity, the sequence of events stimulated by an aminosterol involves the entrainment of the circadian clock, the suprachiasmatic nucleus, and an improvement in the quality of sleep. […]

[2] = tested on: dogs, and rodents; conditions: administered orally; cited from earlier work
[3] = tested on: isolated colons; test: Isolated perfused colon, migrating muscular contractions (aged mouse; loperamide in young mouse); conditions: loperamide introduced into the lumen of a young mouse
Excerpt: Isolated colons were mounted in an apparatus that permits continuous perfusion through the lumen, and the monitoring of the velocity, frequency and pressure of migrating muscular contractions (MMCs). Similar to the experience in humans, aging in mice is associated with diminished colonic peristaltic activity.
In humans, opiates markedly diminish GI motility and suppress fluid secretion causing constipation. […] When loperamide is introduced into the lumen of a young mouse colonic peristalsis is inhibited. When squalamine is added in presence of continued loperamide perfusion, the dysmotility is overridden.

[4] = in vivo; cited from earlier work
[5] = single and repeat intravenous administration; cited from earlier work

SMILES: CC(C)[C@@H](CC[C@@H](C)[C@H]1CC[C@H]2[C@@H]3[C@H](O)C[C@H]4C[C@@H](NCCCNCCCCNCCCN)CC[C@]4(C)[C@H]3CC[C@]12C)OS(=O)(=O)O [Aminosterol 1436]
- duration of the aminosterol-induced response [1]: about 4 days
- anorectic activity [2]: no anorectic activity

SMILES: CN(C)C(=O)C(CCN1CCC(O)(c2ccc(Cl)cc2)CC1)(c1ccccc1)c1ccccc1 [loperamide, reference compound]
- colonic peristalsis [3]: inhibited

SMILES: CC(C)[C@@H](CC[C@@H](C)[C@H]1CC[C@H]2[C@@H]3[C@H](O)C[C@H]4C[C@@H](NCCCNCCCCN)CC[C@]4(C)[C@H]3CC[C@]12C)OS(=O)(=O)O.C[C@H](O)C(=O)O.O [squalamine lactate]
- oral bioavailability [4]: poorly bioavailable orally
- well tolerated dose [5]: at least 300 mg/m^2
